Measurements reported in patent US20250197398A1, “Varenicline Related Compounds and Methods for Treating Diseases and Conditions Including Tobacco Use Disorder” (SpaceRX LLC, priority 2022, published 2025).

How the values were obtained:
Assay type in all cases: in vivo
[1] = system: nicotine-induced dopamine signaling in the striatum; experiment: Nicotine-evoked striatal dopamine release after compound pretreatment (GRAB-DA sensor, fiber photometry); settings: awake mice pretreated with compound; IP nicotine 2 hours later; mean dopamine response for 30 minutes following nicotine; varenicline 1.5 and 4.5 mpk; FIG. 2A-2C
Description: (§1) FIG. 1A-FIG. 1B are a schematic and a response curve illustrating the monitoring of striatal dopamine in the awake behaving animal in response to varenicline. […] Scale bar, 200 μm.
FIG. 2A-FIG. 2C are bar graphs and a response curve illustrating the striatal dopamine responses to nicotine. […] FIGS. 2B-2C show exemplary traces and quantification of striatal dopamine responses preceding and following an IP administration of nicotine. Mice were pretreated either with Varenicline (light grey) or Varenicline-Encarbil (dark grey).
(§2) The ability of varenicline to decrease nicotine use comes from the ability to block nicotine-induced dopamine signaling in the striatum. Real-time sensing of dopamine levels in awake and behaving mice was measured using a fluorescent dopamine sensor (GRAB-DA) and fluorometric measurements of that sensor (Fiber Photometry).

[2] = system: striatal dopamine levels; experiment: Striatal dopamine response to oral compound administration (GRAB-DA sensor, fiber photometry); settings: awake mice; mean for 30 minutes following compound administration; varenicline 1.5 and 4.5 mpk; FIG. 3A-3B
Description: as §1
FIG. 3A-FIG. 3B are a bar graph and a response curve illustrating the striatal dopamine responses to oral compound administration.
as §2

[3] = system: anxiety-like behavior in mice; experiment: Open field assay after oral compound administration; settings: varenicline 1.5 and 4.5 mpk, FIG. 5
Description: FIG. 5 is a bar graph illustrating open field responses to oral administration of compounds.
Varenicline also influenced the mobility and anxiety-like behavior in mice.

SMILES: c1cnc2cc3c(cc2n1)[C@@H]1CNC[C@H]3C1 [varenicline]
- efficacy at reducing the nicotine-evoked release of dopamine [1]: regardless the dose of varenicline, the response to nicotine 2 hours later is the same
- striatal dopamine response following oral administration of compound [2]: increased striatal dopamine levels after administration
- anxiety-like behavior: time spent in center of open field [3]: dramatically reduced time in the middle

SMILES: N[C@@H](Cc1ccc(OC(=O)N2CC3CC(C2)c2cc4nccnc4cc23)cc1)C(=O)O [Varenicline-CBT]
- striatal dopamine response following oral administration of compound [2]: do not lead to dopamine release
- anxiety-like behavior: time spent in center of open field [3]: not observed

SMILES: CC(OC(=O)C(C)C)OC(=O)N1CC2CC(C1)c1cc3nccnc3cc12 (stereo not drawn) [Varenicline-Encarbil]
- efficacy at reducing the nicotine-evoked release of dopamine [1]: better efficacy when compared directly to varenicline
- striatal dopamine response following oral administration of compound [2]: mimic the effects of varenicline

SMILES: O=C(N[C@@H](CO)C(=O)O)c1ccc[n+](COC(=O)N2CC3CC(C2)c2cc4nccnc4cc23)c1 [Servarenicline Chloride]
- efficacy at reducing the nicotine-evoked release of dopamine [1]: better efficacy when compared directly to varenicline
- striatal dopamine response following oral administration of compound [2]: do not lead to dopamine release
- anxiety-like behavior: time spent in center of open field [3]: not observed

SMILES: NCC(=O)N1CC2CC(C1)c1cc3nccnc3cc12 [Varenicline Glycinamide]
- striatal dopamine response following oral administration of compound [2]: do not lead to dopamine release
- anxiety-like behavior: time spent in center of open field [3]: not observed
